# Measured values: ChEMBL document CHEMBL1671659, “In vitro and in vivo properties of dihydrophthalazine antifolates, a novel family of antibacterial drugs” (Antimicrob Agents Chemother, 2009)
# The source made the active and inactive calls. The calls are words filed in the database; no cut-off is given here.
# Legend:
# [1] = tested on: Mus musculus; assay: Toxicity in po dosed NMRI mouse; type: organism-based; details: in vivo
# [2] = tested on: Staphylococcus aureus; assay: Antibacterial activity against trimethoprim-sensitive Staphylococcus aureus ATCC 29213 infected in NMRI mouse model of septicemia assessed as succumbed to infections at 1.6 mg/kg, iv; type: functional, organism-based; design: dose 1.6 mg/kg
# [3] = tested on: Enterococcus faecium; assay: Antibacterial activity against vancomycin-resistant dfrE-negative and folA, dfrF-positive Enterococcus faecium; type: functional
# [4] = tested on: Staphylococcus epidermidis; assay: Antibacterial activity against methicillin-sensitive dfrC, dfrA-positive and dfrD-negative Staphylococcus epidermidis; type: functional
# [5] = Tmax in NMRI mouse blood at 25 mg/kg administered through oral gavage measured after 7 hrs; type: ADME, organism-based; design: dose 25 mg/kg, route oral
# [6] = tested on: Streptococcus pneumoniae; assay: Antibacterial activity against Streptococcus pneumoniae in presence of 250 ug/ml thymidine; type: functional
# [7] = tested on: Staphylococcus aureus; assay: Antibacterial activity against methicillin-resistant dfrB, dfrG-positive and dfrA-negative Staphylococcus aureus; type: functional
# [8] = tested on: Staphylococcus aureus; assay: Antibacterial activity against trimethoprim-sensitive Staphylococcus aureus ATCC 29213; type: functional
# [9] = tested on: Streptococcus pneumoniae; assay: Antibacterial activity against Streptococcus pneumoniae in presence of 50 ug/ml thymidine; type: functional
# [10] = tested on: Staphylococcus aureus; assay: Antibacterial activity against vancomycin, trimethoprim-sensitive and methicillin-resistant Staphylococcus aureus ATCC 43300 harboring dfrB gene; type: functional
# [11] = biological target: Dihydrofolate reductase (Staphylococcus aureus, UniProt P0A017, F99Y); assay: Inhibition of trimethoprim-resistant Staphylococcus aureus DfrB type dihydrofolate reductase F98Y mutant
# [12] = tested on: Staphylococcus epidermidis; assay: Antibacterial activity against methicillin, vancomycin, trimethoprim-sensitive Staphylococcus epidermidis ATCC 14990 harboring dfrC gene; type: functional
# [13] = tested on: Mycobacterium avium; assay: Antibacterial activity against Mycobacterium avium assessed as inhibition of bacterial growth at <=4 ug/ml; type: functional; design: scale not given: the % may be the effect or the level left
# [14] = AUC (0 to t) in NMRI mouse blood at 25 mg/kg administered through oral gavage after 7 hrs; type: ADME, organism-based; design: time < 7 hr, dose 25 mg/kg, route oral
# [15] = tested on: Staphylococcus aureus; assay: Antibacterial activity against trimethoprim-resistant Staphylococcus aureus BAS003908 infected in NMRI mouse model of septicemia; type: functional
# [16] = tested on: HeLa; assay: Cytotoxicity against human HeLa cells; type: cell-based
# [17] = Oral bioavailability in NMRI mouse; type: ADME, organism-based; details: in vivo
# [18] = tested on: Haemophilus influenzae; assay: Antibacterial activity against Haemophilus influenzae; type: functional
# [19] = tested on: Staphylococcus aureus; assay: Antibacterial activity against vancomycin, trimethoprim, methicillin-resistant Staphylococcus aureus VRS1 harboring dfrA and dfrB genes; type: functional
# [20] = tested on: Enterococcus faecium; assay: Antibacterial activity against Enterococcus faecium in presence of 250 ug/ml thymidine; type: functional
# [21] = tested on: Staphylococcus epidermidis; assay: Antibacterial activity against methicillin-resistant dfrC, dfrA-positive and dfrA within SCCmec-N1, dfrD-negative Staphylococcus epidermidis; type: functional
# [22] = tested on: Staphylococcus aureus; assay: Antibacterial activity against methicillin-resistant dfrA within SCCmec-N1, dfrA and dfrG -negative Staphylococcus aureus harboring F98Y mutation in dfrB gene; type: functional
# [23] = tested on: Staphylococcus aureus; assay: Antibacterial activity against methicillin-sensitive dfrB-positive abd dfrA, dfrG-negative Staphylococcus aureus; type: functional
# [24] = tested on: Streptococcus pneumoniae; assay: Antibacterial activity against Streptococcus pneumoniae
# [25] = tested on: Enterococcus faecalis; assay: Antibacterial activity against Enterococcus faecalis in presence of 250 ug/ml thymidine; type: functional
# [26] = tested on: Staphylococcus epidermidis; assay: Antibacterial activity against methicillin-sensitive dfrC-positive and dfrA, dfrD-negative Staphylococcus epidermidis; type: functional
# [27] = tested on: Enterococcus faecium; assay: Antibacterial activity against vancomycin-resistant dfrE, dfrF-negative and folA-positive Enterococcus faecium; type: functional
# [28] = tested on: Enterococcus faecium; assay: Antibacterial activity against vancomycin-sensitive dfrE, dfrF-negative and folA-positive Enterococcus faecium; type: functional
# [29] = Cmax in NMRI mouse blood at 25 mg/kg administered through oral gavage measured after 7 hrs; type: ADME, organism-based; design: dose 25 mg/kg, route oral
# [30] = tested on: Staphylococcus aureus; assay: Antibacterial activity against methicillin, vancomycin, trimethoprim-sensitive Staphylococcus aureus ATCC 29213 harboring dfrB gene; type: functional
# [31] = tested on: Staphylococcus aureus; assay: Antibacterial activity against trimethoprim-sensitive Staphylococcus aureus ATCC 29213 infected in NMRI mouse model of septicemia; type: functional
# [32] = tested on: Haemophilus influenzae; assay: Antibacterial activity against Haemophilus influenzae in presence of 50 ug/ml thymidine
# [33] = tested on: Enterococcus faecium; assay: Antibacterial activity against Enterococcus faecium; type: functional
# [34] = tested on: Enterococcus faecalis; assay: Antibacterial activity against Enterococcus faecalis; type: functional
# [35] = tested on: Staphylococcus aureus; assay: Antibacterial activity against methicillin-resistant dfrB, dfrA-positive and dfrA within SCCmec-N1, dfrG-negative Staphylococcus aureus; type: functional
# [36] = tested on: Staphylococcus epidermidis; assay: Antibacterial activity against methicillin-sensitive dfrA-positive and dfrD-negative Staphylococcus epidermidis harboring F98Y mutation in dfrC gene; type: functional
# [37] = tested on: Staphylococcus aureus; assay: Antibacterial activity against trimethoprim-sensitive Staphylococcus aureus ATCC 29213 infected in NMRI mouse model of septicemia assessed as complete protection from infections at 3.1 mg/kg, iv; type: functional, organism-based; design: dose 3.1 mg/kg
# [38] = tested on: Mus musculus; assay: Hepatotoxicity in NMRI mouse assessed as increase in liver weight at 400 mg/kg administered through oral gavage for 5 days; type: toxicity, organism-based; design: dose 400 mg/kg, route oral; details: in vivo, 120 h
# [39] = tested on: Staphylococcus epidermidis; assay: Antibacterial activity against methicillin-sensitive dfrA, dfrD-negative Staphylococcus epidermidis harboring F98Y mutation in dfrC gene; type: functional
# [40] = tested on: Enterococcus faecium; assay: Antibacterial activity against Enterococcus faecium in presence of 50 ug/ml thymidine; type: functional
# [41] = tested on: Haemophilus influenzae; assay: Antibacterial activity against Haemophilus influenzae in presence of 250 ug/ml thymidine; type: functional
# [42] = tested on: Enterococcus faecalis; assay: Antibacterial activity against vancomycin-sensitive dfrE, dfrF-positive and folA-negative Enterococcus faecalis; type: functional
# [43] = Inhibition of trimethoprim-sensitive Staphylococcus aureus DfrB type dihydrofolate reductase
# [44] = tested on: Staphylococcus aureus; assay: Antibacterial activity against trimethoprim-resistant Staphylococcus aureus BAS003908; type: functional
# [45] = tested on: Enterococcus faecalis; assay: Antibacterial activity against Enterococcus faecalis in presence of 50 ug/ml thymidine; type: functional
# [46] = tested on: Enterococcus faecalis; assay: Antibacterial activity against vancomycin-sensitive folA, dfrF-negative Enterococcus faecalis harboring A5T, K88N, F102Y mutation in dfrE gene; type: functional
# [47] = tested on: Staphylococcus epidermidis; assay: Antibacterial activity against methicillin, vancomycin-sensitive and trimethoprim-resistant Staphylococcus epidermidis BAS000635 harboring dfrC and dfrA genes; type: functional
# [48] = Inhibition of trimethoprim-resistant Staphylococcus aureus Type S1 dihydrofolate reductase
smiles,measurement,setting,value
COc1cc(Cc2cnc(N)nc2N)cc(/C=C/C(=O)N2N=Cc3ccccc3C2c2cnc(N(C)C)nc2)c1OC (stereo unspecified),Activity,[1],400 mg/kg
same,Activity,[2],inactive
same,MIC,[3],> 128 µg/mL
same,MIC,[4],1 µg/mL
same,Tmax,[5],2 h
same,MIC,[6],≥ 128 µg/mL
same,MIC,[7],64 µg/mL
same,MIC,[8],1 µg/mL
same,MIC,[9],32 µg/mL
same,MIC,[10],1 µg/mL
same,IC50,[11],70.2 nM
same,MIC,[12],0.25 µg/mL
same,Activity,[13],77%
same,AUC(0-t) at 7 h,[14],23400 ng·h/mL
same,ED50,[15],3.1 mg/kg
same,IC50,[16],12000 nM
same,bioavailability,[17],26%
same,MIC,[18],> 128 µg/mL
same,MIC,[19],2 µg/mL
same,MIC,[20],≥ 128 µg/mL
same,MIC,[21],0.5 µg/mL
same,MIC,[22],1 µg/mL
same,MIC,[23],1 µg/mL
same,MIC,[24],≥ 128 µg/mL
same,MIC,[25],1 µg/mL
same,MIC,[26],< 0.25 µg/mL
same,MIC,[27],2 µg/mL
same,MIC,[28],≤ 0.25 µg/mL
same,Cmax,[29],5390 ng/mL
same,MIC,[30],0.5 µg/mL
same,ED50,[31],1.6 mg/kg
same,MIC,[32],≥ 128 µg/mL
same,MIC,[33],2 µg/mL
same,MIC,[34],0.5 µg/mL
same,MIC,[35],1 µg/mL
same,MIC,"[35]; Staphylococcus aureus, read-out: MIC",2 µg/mL
same,MIC,[36],1 µg/mL
same,Activity,[37],Active
same,Activity,[38],< 10%
same,MIC,[39],1 µg/mL
same,MIC,[40],≥ 128 µg/mL
same,MIC,[41],32 µg/mL
same,MIC,[42],> 128 µg/mL
same,IC50,[43],11.3 nM
same,MIC,[44],1 µg/mL
same,MIC,[45],≤ 0.25 µg/mL
same,MIC,[46],0.5 µg/mL
same,MIC,[47],2 µg/mL
COc1ncc([C@@H]2c3ccccc3C=NN2C(=O)/C=C/c2cc(Cc3cnc(N)nc3N)cc(OC)c2OC)cn1,MIC,[10],1 µg/mL
same,IC50,[11],1150 nM
same,MIC,[12],0.5 µg/mL
same,MIC,[19],> 8 µg/mL
same,MIC,[30],2 µg/mL
same,IC50,[43],12.5 nM
same,IC50,[48],1330 nM
same,MIC,[47],> 8 µg/mL
